Experiment: xn = mol fraction of the nth substance listed
Conditions: 100.9 kPa, x2 = 0

O + CC(=O)[O-].CC[NH2+]CC
Conditions | speed of sound [m/s] | viscosity [mPa·s]
283.15 K | – | 1.306
288.15 K | – | 1.138
290.65 K | – | 1.066
293.15 K | – | 1.002
295.65 K | – | 0.943
298.15 K | – | 0.89
303.15 K | – | 0.797
305.65 K | – | 0.757
308.15 K | – | 0.719
310.65 K | – | 0.685
313.15 K | 1529.2 | 0.653
315.65 K | – | 0.624
318.15 K | 1536.8 | 0.596
323.15 K | – | 0.547
325.65 K | – | 0.525
328.15 K | – | 0.504
330.65 K | – | 0.485
333.15 K | – | 0.466
338.15 K | – | 0.433
340.65 K | – | 0.418

From a compilation of properties of binary mixtures (doi:10.1016/j.jct.2020.106093)
